Data from a compilation of properties of binary mixtures (doi:10.7498/aps.66.196101).

Test: xn = mol fraction of the nth substance listed
Details: 100 kPa

CCCCCC[n+]1ccccc1.N#C[N-]C#N + O
Details | electrical conductivity, x1 = 0.9076 [S/m] | electrical conductivity, x1 = 0.9239 [S/m] | electrical conductivity, x1 = 0.9408 [S/m] | electrical conductivity, x1 = 0.9582 [S/m] | electrical conductivity, x1 = 0.9762 [S/m] | viscosity, x1 = 0.9152 [mPa·s] | viscosity, x1 = 0.9306 [mPa·s] | viscosity, x1 = 0.9488 [mPa·s] | viscosity, x1 = 0.9665 [mPa·s] | viscosity, x2 = 0.0151 [mPa·s]
298.15 K | 0.554 | 0.532 | 0.512 | – | – | 49.3 | – | 51.8 | 53.7 | –
303.15 K | 0.682 | 0.66 | 0.642 | 0.615 | 0.588 | 39.19 | 40.28 | 41.67 | – | 45.48
308.15 K | 0.817 | – | 0.769 | 0.739 | 0.711 | 32.18 | 33.01 | 34.12 | 35.44 | 37.16
313.15 K | 0.997 | 0.958 | 0.927 | 0.889 | 0.839 | 26.76 | 27.39 | 28.15 | 29.09 | 30.51
318.15 K | 1.17 | 1.12 | – | 1.05 | 1 | – | 23.12 | 23.8 | – | 25.35
323.15 K | 1.34 | 1.29 | 1.26 | 1.22 | 1.17 | 18.75 | 19.06 | 19.48 | 20.12 | 21.03
328.15 K | 1.52 | – | 1.42 | 1.39 | – | – | 16.38 | – | 17.36 | 18.12
333.15 K | 1.73 | 1.68 | 1.64 | 1.59 | 1.55 | 13.84 | 14.07 | 14.44 | 14.95 | 15.67
338.15 K | – | 1.9 | – | 1.8 | 1.75 | – | 12.38 | 12.75 | 13.17 | –

CCCCC[n+]1ccccc1.N#C[N-]C#N + O
Details | electrical conductivity, x1 = 0.9199 [S/m] | electrical conductivity, x1 = 0.9356 [S/m] | electrical conductivity, x1 = 0.9518 [S/m] | electrical conductivity, x1 = 0.9685 [S/m] | electrical conductivity, x2 = 0.0142 [S/m] | viscosity, x1 = 0.9199 [mPa·s] | viscosity, x1 = 0.9345 [mPa·s] | viscosity, x1 = 0.9518 [mPa·s] | viscosity, x1 = 0.9674 [mPa·s] | viscosity, x2 = 0.0154 [mPa·s]
298.15 K | 0.687 | – | 0.648 | 0.63 | 0.611 | 41 | 42.1 | 43.4 | 44.7 | 45.9
303.15 K | 0.865 | – | 0.798 | 0.761 | 0.719 | 33.3 | 34.1 | 35.1 | 36 | 37
308.15 K | 1.08 | 1.03 | – | 0.926 | 0.873 | 27.4 | 28.1 | – | – | 30.4
313.15 K | – | 1.19 | 1.13 | 1.09 | 1.03 | – | 23.49 | 24.01 | 24.6 | 25.4
318.15 K | 1.42 | 1.39 | 1.33 | – | – | 19.45 | 19.85 | 20.32 | 20.87 | 21.39
323.15 K | – | 1.6 | 1.55 | – | 1.43 | – | – | 16.27 | – | –
328.15 K | 1.86 | – | 1.76 | 1.7 | – | 13.96 | – | 14.48 | 14.81 | –
333.15 K | 2.08 | 2.03 | 1.97 | 1.92 | 1.88 | 12.2 | 12.43 | 12.69 | 12.99 | 13.26
338.15 K | 2.34 | 2.29 | – | 2.17 | 2.12 | 10.78 | 10.9 | – | 11.32 | 11.64

CCCC[n+]1ccccc1.N#C[N-]C#N + O
Details | electrical conductivity, x1 = 0.9189 [S/m] | electrical conductivity, x1 = 0.9335 [S/m] | electrical conductivity, x1 = 0.9486 [S/m] | electrical conductivity, x1 = 0.9642 [S/m] | electrical conductivity, x2 = 0.0198 [S/m] | viscosity, x1 = 0.9257 [mPa·s] | viscosity, x1 = 0.9415 [mPa·s] | viscosity, x1 = 0.9569 [mPa·s] | viscosity, x1 = 0.9726 [mPa·s] | viscosity, x2 = 0.0111 [mPa·s]
298.15 K | 1.03 | 0.997 | 0.968 | – | 0.903 | 28.23 | 29.04 | – | 31.13 | 32.25
303.15 K | – | – | – | 1.08 | 1.06 | 23.59 | 24.03 | – | 25.61 | 26.58
308.15 K | 1.41 | 1.38 | 1.34 | 1.29 | 1.26 | 19.79 | 20.18 | 20.75 | 21.47 | 22.17
313.15 K | 1.65 | 1.6 | 1.57 | – | 1.5 | – | 17.11 | – | 18.19 | 18.73
318.15 K | 1.93 | – | 1.85 | 1.81 | 1.76 | – | 14.67 | 15 | – | 16.14
323.15 K | 2.32 | 2.26 | 2.18 | 2.11 | 2.05 | 12.11 | 12.4 | – | 13.13 | –
328.15 K | 2.51 | 2.47 | 2.42 | 2.36 | 2.3 | – | – | 11.08 | 11.44 | 11.84
333.15 K | 2.85 | 2.81 | – | – | 2.65 | 9.38 | 9.57 | – | 10.1 | 10.43
338.15 K | 3.22 | 3.16 | 3.1 | 3.05 | 2.99 | 8.34 | – | 8.65 | 8.93 | 9.19

CCCC[n+]1ccn(C)c1.N[C@@H](CO)C(=O)[O-] + O
Details | electrical conductivity, x1 = 0.8285 [S/m] | electrical conductivity, x1 = 0.843 [S/m] | electrical conductivity, x1 = 0.8591 [S/m] | electrical conductivity, x1 = 0.8757 [S/m] | electrical conductivity, x1 = 0.8918 [S/m] | viscosity, x1 = 0.852 [mPa·s] | viscosity, x1 = 0.8736 [mPa·s] | viscosity, x1 = 0.894 [mPa·s] | viscosity, x1 = 0.9165 [mPa·s] | viscosity, x1 = 0.9388 [mPa·s]
298.15 K | 0.0076 | 0.0071 | 0.0068 | 0.0065 | – | 5107 | 5135 | – | – | 5270
303.15 K | 0.0118 | 0.0111 | – | – | 0.0097 | 2975 | 3000 | – | 3073 | 3147
308.15 K | 0.0196 | 0.0183 | 0.017 | 0.016 | 0.0151 | 1828 | 1843 | 1868 | 1897 | 1952
313.15 K | 0.0293 | 0.028 | 0.0261 | 0.0247 | 0.0237 | 1135 | 1159 | – | 1231 | –
318.15 K | 0.0423 | 0.0402 | 0.0375 | 0.0357 | 0.0341 | 753 | 768 | 790 | 822 | 870
323.15 K | 0.0597 | 0.0565 | 0.0534 | 0.0511 | 0.0488 | 523 | 532 | 544 | 566 | 597
328.15 K | 0.0817 | – | – | 0.0703 | 0.0679 | – | 352 | – | 388 | –
333.15 K | – | 0.106 | – | 0.0958 | 0.0921 | 247 | 255 | 266 | 279 | 304
338.15 K | 0.146 | 0.14 | – | 0.127 | 0.122 | – | 187.4 | 197 | 212 | 229
